Entries after “also recorded” stand apart in the source; their conditions may differ.
Legend:
[1] = Completed Phase 1 and Phase 2 clinical studies of nelotanserin (originally for primary insomnia); type: in vivo, human
Description: Nelotanserin: Nelotanserin (RVT-102), previously known as APD-125, is a potent and selective 5HT2a receptor inverse agonist, and is currently being developed as an oral treatment for REM sleep behavior disorder in patients with DLB. Originally being developed for primary insomnia, seven clinical studies have been completed to date that included five Phase 1 and two Phase 2 studies, and 792 individuals have been exposed to nelotanserin over the dose range of 20 to 160 mg and up to 14 days.

[2] = elderly patients; cited from earlier work

Row | SMILES | sleep maintenance and consolidation ([1]; Phase 1 and Phase 2 studies) | slow wave sleep ([1]; Phase 1 and Phase 2 studies) | safety and tolerability profile ([1]; five Phase 1 and two Phase 2 studies, 792 individuals exposed, dose range 20 to 160 mg, up to 14 days) | number of sleep phase transitions ([1]; previous clinical studies) | side effects [2]
1 | COc1ccc(NC(=O)Nc2ccc(F)cc2F)cc1-c1c(Br)cnn1C [nelotanserin] | improves sleep maintenance and consolidation | increases slow wave sleep | favorable safety and tolerability profile; also recorded: acceptable safety and tolerability profile | reduces the number of sleep phase transitions | –
2 | O=C1CN=C(c2ccccc2Cl)c2cc([N+](=O)[O-])ccc2N1 [Clonazepam, clonazepam] | – | – | – | – | confusion, daytime sedation, and increased risk of falls

— patent US10022355B2, “Diaryl and arylheteroaryl urea derivatives as modulators of the 5-HT2A serotonin receptor useful for the prophylaxis and treatment of REM sleep behavior disorder” (Axovant Sciences GmbH, priority 2015, dated 2018)
